According to patent US20260285850A1, “SUBSTITUTED OXAZOLIDINONES AND IMIDAZOLINONES AS HERBICIDES” (FMC CORPORATION, priority 2023, published 2026):

Columns and labels:
Format in all cases: in vivo
[1] = tested on: barnyardgrass (Echinochloa crus-galli); experiment: Test A preemergence soil spray, visual injury rating 0-100; settings: 10 days
Outline: (§1)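 Compounds formulated in a non-phytotoxic solvent with surfactant are sprayed onto soil of freshly planted loam-sand pots ahead of emergence, or onto emerged plants 2-10 cm tall. After a 10-day greenhouse period, each species is scored visually for injury against untreated controls.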

[2] = tested on: blackgrass (Alopecurus myosuroides); experiment: as above; settings: 10 days
Outline: as §1

[3] = tested on: corn (Zea mays); experiment: as above; settings: 10 days
Outline: as §1

[4] = tested on: green foxtail (Setaria viridis); experiment: as above; settings: 10 days
Outline: as §1

[5] = tested on: kochia (Bassia scoparia); experiment: as above; settings: 10 days
Outline: as §1

[6] = tested on: oat, wild (wild oat, Avena fatua); experiment: as above; settings: 10 days
Outline: as §1

[7] = tested on: palmer (palmer amaranth, palmer pigweed, Amaranthus palmeri); experiment: as above; settings: 10 days
Outline: as §1

[8] = tested on: ragweed (common ragweed, Ambrosia artemisiifolia); experiment: as above; settings: 10 days
Outline: as §1

[9] = tested on: ryegrass, Italian (italian ryegrass, Lolium multiflorum); experiment: as above; settings: 10 days
Outline: as §1

[10] = tested on: soybean (Glycine max); experiment: as above; settings: 10 days
Outline: as §1

[11] = tested on: wheat (Triticum aestivum); experiment: as above; settings: 10 days
Outline: as §1

[12] = tested on: barnyardgrass (Echinochloa crus-galli); experiment: Test A postemergence application, visual injury rating 0-100
Outline: as §1

[13] = tested on: blackgrass (Alopecurus myosuroides); experiment: as above
Outline: as §1

[14] = tested on: corn (Zea mays); experiment: as above
Outline: as §1

[15] = tested on: galium (catchweed bedstraw, Galium aparine); experiment: as above
Outline: as §1

[16] = tested on: green foxtail (Setaria viridis); experiment: as above
Outline: as §1

[17] = tested on: horseweed (Erigeron canadensis); experiment: as above
Outline: as §1

[18] = tested on: kochia (Bassia scoparia); experiment: as above
Outline: as §1

[19] = tested on: oat, wild (wild oat, Avena fatua); experiment: as above
Outline: as §1

[20] = tested on: ragweed (common ragweed, Ambrosia artemisiifolia); experiment: as above
Outline: as §1

[21] = tested on: ryegrass, Italian (italian ryegrass, Lolium multiflorum); experiment: as above
Outline: as §1

[22] = tested on: soybean (Glycine max); experiment: as above
Outline: as §1

[23] = tested on: wheat (Triticum aestivum); experiment: as above
Outline: as §1

[24] = tested on: barnyardgrass (Echinochloa crusgalli); experiment: Test B flooded paddy test, visual plant response rating 0-100; settings: 250 g ai/ha, Flood, applied to paddy water, evaluated after 13 days
Outline: (§2)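 Treatment occurs at the 2-leaf stage by adding compound to floodwater standing 3 cm above the soil, a level kept for the whole test. Plants stay in the greenhouse 13 days before visual comparison with controls.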

[25] = tested on: ducksalad (Heteranthera limosa); experiment: as above; settings: 250 g ai/ha, Flood, applied to paddy water, evaluated after 13 days
Outline: as §2

[26] = tested on: rice (Oryza sativa); experiment: as above; settings: 250 g ai/ha, Flood, applied to paddy water, evaluated after 13 days
Outline: as §2

[27] = tested on: sedge, umbrella (small-flower umbrella sedge, Cyperus difformis); experiment: as above; settings: 250 g ai/ha, Flood, applied to paddy water, evaluated after 13 days
Outline: as §2

[28] = 62 g ai/ha, 0 = no effect, 100 = complete control
[29] = 62 g ai/ha, postemergence, 10 days, 0 = no effect, 100 = complete control
[30] = Postemergence, 16 g ai/ha, greenhouse 10 days, 0 no effect, 100 complete control

COC(=O)C1CC(NC(=O)C2(C(F)(F)F)CN(c3cc(F)cc(F)c3)C(=O)O2)C2CC12 (centres unmarked) [Compound 177]
Barnyardgrass plant response rating ([1]; 16 g ai/ha, 0 to 100 scale): 60
Barnyardgrass plant response rating (0-100) [1, 28]: 90
Blackgrass plant response rating ([2]; 16 g ai/ha, 0 to 100 scale): 60
Blackgrass plant response rating (0-100) [2, 28]: 90
Corn plant response rating ([3]; 16 g ai/ha, 0 to 100 scale): 10
Corn plant response rating (0-100) [3, 28]: 10
Foxtail, Green plant response rating ([4]; 16 g ai/ha, 0 to 100 scale): 90
Foxtail, Green plant response rating (0-100) [4, 28]: 100
Kochia plant response rating ([5]; 16 g ai/ha, 0 to 100 scale): 0
Kochia plant response rating (0-100) [5, 28]: 80
Oat, Wild plant response rating ([6]; 16 g ai/ha, 0 to 100 scale): 0
Oat, Wild plant response rating (0-100) [6, 28]: 90
Pigweed, Palmer plant response rating ([7]; 16 g ai/ha, 0 to 100 scale): 90
Pigweed, Palmer plant response rating (0-100) [7, 28]: 100
Ragweed plant response rating ([8]; 16 g ai/ha, 0 to 100 scale): 0
Ragweed plant response rating (0-100) [8, 28]: 20
Ryegrass, Italian plant response rating ([9]; 16 g ai/ha, 0 to 100 scale): 80
Ryegrass, Italian plant response rating (0-100) [9, 28]: 90
Soybean plant response rating ([10]; 16 g ai/ha, 0 to 100 scale): 0
Soybean plant response rating (0-100) [10, 28]: 0
Wheat plant response rating ([11]; 16 g ai/ha, 0 to 100 scale): 40
Wheat plant response rating (0-100) [11, 28]: 100
Barnyardgrass plant response rating (0-100) [12, 29]: 80
Barnyardgrass plant response rating (0 to 100 scale) [12, 30]: 70
Blackgrass plant response rating (0-100) [13, 29]: 90
Blackgrass plant response rating (0 to 100 scale) [13, 30]: 80
Corn plant response rating (0-100) [14, 29]: 90
Corn plant response rating (0 to 100 scale) [14, 30]: 30
Galium plant response rating (0-100) [15, 29]: 80
Galium plant response rating (0 to 100 scale) [15, 30]: 90
Foxtail, Green plant response rating (0-100) [16, 29]: 90
Foxtail, Green plant response rating (0 to 100 scale) [16, 30]: 30
Horseweed plant response rating (0-100) [17, 29]: 10
Horseweed plant response rating (0 to 100 scale) [17, 30]: 0
Kochia plant response rating (0-100) [18, 29]: 70
Kochia plant response rating (0 to 100 scale) [18, 30]: 30
Oat, Wild plant response rating (0-100) [19, 29]: 90
Oat, Wild plant response rating (0 to 100 scale) [19, 30]: 70
Ragweed plant response rating (0-100) [20, 29]: 20
Ragweed plant response rating (0 to 100 scale) [20, 30]: 0
Ryegrass, Italian plant response rating (0-100) [21, 29]: 80
Ryegrass, Italian plant response rating (0 to 100 scale) [21, 30]: 70
Soybean plant response rating (0-100) [22, 29]: 50
Soybean plant response rating (0 to 100 scale) [22, 30]: 20
Wheat plant response rating (0-100) [23, 29]: 90
Wheat plant response rating (0 to 100 scale) [23, 30]: 80
Plant response rating, Barnyardgrass (0 to 100 scale, 0 is no effect and 100 is complete control) [24]: 90
Plant response rating, Ducksalad (0 to 100 scale, 0 is no effect and 100 is complete control) [25]: 75
Plant response rating, Rice (0 to 100 scale, 0 is no effect and 100 is complete control) [26]: 90
Plant response rating, Sedge, Umbrella (0 to 100 scale, 0 is no effect and 100 is complete control) [27]: 80
